# Results published in patent US20150259371A1, “METHODS AND COMPOUNDS FOR INHIBITING GLYCOSYLTRANSFERASES” (SIMON FRASER UNIVERSITY, priority 2010, published 2015).
# What was measured:
# [1] = system: incorporation of azido sugar onto proteins in COS-7 cells; assay: Metabolic feeding and Staudinger ligation with biotin phosphine, streptavidin-HRP blot; format: cell-based, African green monkey; conditions: 50 μM, 24 h
# Protocol: (A) Structures of the molecules used or generated during the chemoselective ligation study (X═O or S as indicated, R═H or Ac as indicated). (B) Western blots of COS-7 cell lysates administered specified agents at 50 μM for 24 h; vehicle only (C), Ac-GlcNAz or Ac-5SGlcNAz (41). Cells were harvested and then underwent the Staudinger ligation with biotin phosphine. Blots are probed with (from top to bottom) streptavidin-HRP, anti O-GlcNAc (CTD110.6) antibody and anti-actin antibody. (C) Western blot of immunoprecipitated nup62 from cell lysates following vehicle (C), 50 μM Ac-GlcNAz or Ac-5SGlcNAz (41) treatment for 24 h. Following immunoprecipitation, nup62 was incubated with buffer (−) or with BtGH84 (+) for 2 h to remove O-GlcNAc, and then underwent the Staudinger ligation with biotin phosphine. Blots are probed with streptavidin-HRP. […]
# To probe the possibility that 5SGlcNAc is being incorporated onto proteins, we used a metabolic feeding and chemoselective ligation strategy using 2-azidoacetamido-2-deoxy-D-glucopyranose (GlcNAz), which can be assimilated by the HBP to form uridine diphospho-N-azidoacetylglucosamine (UDP-GlcNAz) and then be installed onto proteins as O-GlcNAz^9. […] Accordingly, we evaluated whether 2-azidoacetamido-2-deoxy-5-thio-D-glucopyranose (5SGlcNAz) is incorporated onto proteins to determine whether 5SGlcNAc might be transferred onto proteins in cells. […]
# [2] = system: EMEG32 heterozygous mouse embryonic fibroblast cells; assay: Cell proliferation growth curves over 5 days and western blot, EMEG32 heterozygous fibroblasts; format: cell-based; conditions: EMEG32 heterozygotes, 50 μM, 5 days
# Protocol: (A) Cell proliferation curves over the course of 5 days for CHO cells following no (circles), 50 μM Ac-GlcNAc (squares) or 50 μM Ac-5SGlcNAc (triangles) treatment. The error bars indicate the deviation from the mean for triplicate measurements. […] Upper panel, probed with anti-O-GlcNAc antibody (CTD110.6); lower panel, probed with anti-actin antibody. (B) Cell proliferation curves over the course of 5 days for EMEG heterozygous mouse embryonic fibroblast cells following no (circles), 50 μM Ac-GlcNAc (squares) or 50 μM Ac-5SGlcNAc (triangles) treatment. The error bars indicate the deviation from the mean for triplicate measurements. […] Upper panel, probed with anti-O-GlcNAc antibody (CTD110.6); lower panel, probed with anti-actin antibody. (C) Western blots of CHO cell lysates following no (C) or Ac-5SGlcNAc administration at 50 μM for 4 days. Probed with (from top to bottom) anti-Spl antibody, anti O-GlcNAc (CTD110.6) antibody and anti-actin antibody. Full blot of the anti-Sp 1 is shown in panel (d). (D) Western blots of CHO cell lysates following no (C) or Ac-5SGlcNAc administration at 50 μM for 4 days. The full blot probed with anti-Spl antibody is shown. (E) Western blots of COS-7 cell lysates following no (C) or 50 μM Ac-5SGlcNAc treatment for 24 h. Following treatment, the media was replaced with no inhibitor, and cells were harvested at the time points indicated (between 0 and 24 h). Upper panel, probed with anti-O-GlcNAc antibody (CTD110.6); lower panel, probed with anti-actin antibody.
# Cellular responses to Ac-5SGlcNAc (9) treatment and consequent decreases in O-GlcNAc levels were evaluated. […] We quantitatively evaluated cell proliferation and established growth curves over the course of 5 days in both CHO and EMEG32 heterozygous mouse embryonic fibroblast cells treated with 50 μM Ac-5SGlcNAc (9), 50 μM Ac-GlcNAc (G), or vehicle (FIGS. 5A-B).
# [3] = system: O-GlcNAc levels in COS-7 cells; assay: Western blot of O-GlcNAc levels (CTD110.6) in treated COS-7 cells; format: cell-based, African green monkey; conditions: 50 μM, 24 h
# Protocol: Cell culture: Cells were grown in an incubator at 37° C. and 5% CO2 atmosphere. Media and serum were purchased from Invitrogen. COS-7 cells were cultured in Dulbecco's modified Eagle's medium (DMEM) with 5% fetal bovine serum (FBS), and were typically 80-100% confluent prior to experimentation. HepG2, SK-N-SH, and EMEG32^−/− cells were cultured in Dulbecco's modified Eagle's medium (DMEM) with 5% fetal bovine serum (FBS), CHO cells in DMEMF-12 with 5% FBS and PC12 cells in DMEM with 5% FBS and 5% horse serum. Prior to experimentation, PC12 cells were plated at a density of 3-4×10^5 cells10 cm plate, which had been pre-treated with 5 μgcm^2 rat tail collagen (BD Biosciences). Cells were differentiated in DMEM containing 1% horse serum, in the presence of 2.5S mouse nerve growth factor (Chemicon) at a final concentration of 25 ng mL^−1, for 4-5 days prior to treatment. Other cell lines were 80-100% confluent prior to treatment. Following treatment with (Ac-)5SGlcNAc, using various conditions, cells were washed gently with PBS, lysed in SDS loading buffer and boiled for 10 minutes. Mouse hybridoma cells (obtained from the Developmental Studies Hybridoma Bank; antibody E7 for (:1-tubulin) were cultured in RPMI40 with 10% FBS. Prior to treatment with Ac-5SGlcNAc, hybridoma cells were cultured for 2 days in RPMI40 with 5% FBS, and during treatment in RPMI40 with no serum. Cells were collected, centrifuged (800 x g, 5 min) and the supernatant removed. Cells were washed with PBS, centrifuged, the pellet resuspended in SDS loading buffer and boiled. The supernatant after centrifugation, which contained the IgG antibody produced by the cells, was used for immunoprecipitation (see below for details).
# Westernlectin blots: Samples were run on 10% SDS polyacrylamide gels and transferred onto nitrocellulose membranes (Biorad). Membranes were blocked for 1 h in PBS containing 0.1% Tween-20 (PBS-T) containing 1% (unless otherwise stated) bovine serum albumin (BSA), and probed with the appropriate primary antibody or lectin in 1% BSA in PBS-T overnight at 4° C. Blots were washed for 1 hr with PBS-T, and blocked for a further 30 min with 1% BSA in PBS-T at room temperature. They were then probed with the appropriate horseradish peroxidise (HRP)-conjugated secondary antibodyprobe in 1% BSA in PBS-T at room temperature for 1 h, followed by washing in PBS-T for 1 h. Blots were developed with SuperSignal West Pico Chemiluminescent Substrate (Pierce) and exposed to CL-XPosure film (Pierce). Densitometry was performed using ImageQuant 5.2 (Molecular Dynamics), and fits to the data were made using GRAFIT^41.
# Antibodieslectins: O-GlcNAc levels were assessed primarily using CTD110.6 (Covance), but RL2 (Abcam) and HGAC85 (Abcam) were also tested. Actin was probed using JLA20 (Developmental Studies Hybridoma Bank). OGA levels were assessed using a polyclonal anti-OGA antibody which was a kind gift from Dr. Gerald Hart and OGT levels using H-300 (Santa Cruz Biotechnology). nup62 was probed using mAb 414 (Covance). Secondary antibodies employed (HRP-conjugated goat anti-mouse IgM, goat anti-mouse IgG, goat anti-chicken IgY and goat anti-rabbit IgG) were obtained from Santa Cruz Biotechnology. Biotinylated-ConA, PHA-L, SNA and MAA were purchased from EY Laboratories, and biotinylated-GNA from Vector Laboratories. HRP-conjugated streptavidin (Pierce) was used as a probe for the biotinylated lectins.
# Analogues (9, 10, 17-41) were tested in COS-7 cells, dosed at a final concentration of 50 μM in DMSO for 24 h. Following treatment, cells were washed with PBS, harvested into SDS-PAGE loading buffer and analyzed by western blot using standard procedures; blots were probed with the anti-O-GlcNAc antibody (CTD 110.6).
# [4] = system: O-GlcNAc levels in mice tissues; assay: O-GlcNAc levels in mouse tissues after intraperitoneal dosing; format: in vivo; conditions: 300 mg/kg intraperitoneally, 16 hours
# Protocol: Ac-5SGlcNAc 9 and the deprotected analogue with the hexyl substituent at the C2 position 28 have been analyzed for effectiveness at decreasing O-GlcNAc levels in mice. Pilot studies were conducted with mice dosed in triplicate with either compound or vehicle alone. Compounds were dosed at 300 mg/kg intraperitoneally using 75% DMSO as vehicle for delivery of 9 and phosphate-buffered saline (PBS) for delivery of 28. Mice were euthanized using a CO2 chamber after 16 hours exposure to either compound, and tissues (liver, lung, heart, kidney, spleen, pancreas, brain, blood, fat and muscle) harvested and flash frozen in liquid nitrogen. Frozen tissues were ground using a pestle and mortar, and resuspended in cell lysis buffer (50 mM NaH2PO4, 150 mM NaCl, 0.1% SDS, 1% NP-40, 0.25% sodium deoxycholate, 1 mM EDTA, 30 mM sodium fluoride, 30 mM β-glycerophosphate, 5 mM sodium pyrophosphate, 1 mM Thiamet-G, protease inhibitor cocktail (Roche)) at a concentration of 100 mg tissue1 mL buffer prior to homogenization. Homogenates were centrifuged at 13,000 rpm for 20 min, the supernatant removed, added to 2×SDS-PAGE loading buffer and boiled for […]. SDS-PAGE and western blots were performed using standard procedures. Blots were probed using anti-O-GlcNAc antibody (CTD110.6, Santa Cruz Biotechnology) and anti-actin antibody for a loading control.
Compound,streptavidin signal after Staudinger ligation (accumulation of azido sugar on proteins) [1],growth rate [2],effect on O-GlcNAc levels at single dose [3],O-GlcNAc levels in tissues [4],extent of decrease of O-GlcNAc levels relative to parent compound 9 [3]
2-azidoacetamido-2-deoxy-5-thio-D-glucopyranose [Compound 5SGlcNAz],does not accumulate on proteins to any measurable level,,,,
"CC(=O)N[C@H]1[C@H](OC(C)=O)O[C@H](COC(C)=O)[C@@H](OC(C)=O)[C@@H]1OC(C)=O [Ac-GlcNAc, reference compound]",,indistinguishable but were both lower than vehicle treated cells,,,
"CC(=O)OC[C@H]1O[C@H](OC(C)=O)[C@H](NC(=O)CN=[N+]=[N-])[C@@H](OC(C)=O)[C@@H]1OC(C)=O [Ac-GlcNAz, 1,3,4,6-tetra-O-acetyl-2-azidoacetamido-2-deoxy-ot-D-glucopyranose, reference compound]",Only proteins from cells treated with Ac-GlcNAz revealed any signal,,only 5SGlcNAz decreased O-GlcNAc levels,,
"CCCCCC(=O)NC1C(O)SC(CO)C(O)C1O [Compound 28, N-Hexonoyl-a-D-5-thio-glucosamine]",,,decreased O-GlcNAc levels in cells,"effective at decreasing O-GlcNAc levels during the 16 hour dosing period in the liver, lung, heart, kidney, spleen, pancreas, fat and muscle",comparable extent to the parent compound
